Reference: US20200352947A1, “USE OF SEROTONERGIC DRUGS TO TREAT VIRUS-INDUCED THROMBOCYTOPENIA” (NATIONAL UNIVERSITY OF SINGAPORE, priority 2017, published 2020)

Columns and labels:
Format in all cases: in vivo
DENV2 = assay: DENV viral load by qRT-PCR in IFNR-KO mice; conditions: DENV2 2×10^5 pfu i.p., ketanserin 8 mg/kg daily, 72 h post-infection
Method: (A) WT mice were treated with vehicle or ketanserin (8 mg/kg) prior to subcutaneous footpad injection with 2×10^5 pfu of DENV or PBS. At 72 h post-infection, popliteal lymph nodes were isolated for viral quantification by qRT-PCR. […] (B-C) WT mice were infected with DENV2 (1×10^6 pfu, i.p.) and treated daily with either 8 mg/kg of ketanserin or vehicle. […] (C) At 1 day post-infection, the spleen was harvested and DENV2 was quantified by qRT-PCR.
Since a concern with inhibition of host factors would be the effect on viral replication, the levels of viremia following DENV infection were measured. WT mice were treated with either ketanserin or vehicle prior to a subcutaneous footpad injection. The draining lymph nodes were then harvested to determine if targeting 5HT2A receptors had any influence on viral load. […] Subsequently it was determined whether targeting serotonin would have an effect on viral load in systemic infection. WT mice were treated with either ketanserin or vehicle following DENV systemic infection via intraperitoneal injection. Serum was isolated at days 1 and 3 post-infection and viremia quantified. […] The second model of severe DENV infection, the IFN-α,β, γ-R^−/− (IFNR-KO) mice, were subsequently infected and treated with either ketanserin or vehicle. These mice are known to have higher levels of viremia than WT mice.

[1] = test system: DENV2-infected IFNαβγ-KO mice; assay: Platelet counts in DENV2-infected mice deficient in interferon signalling; conditions: 10^6 pfu DENV2 IP, ketanserin 8 mg/kg IP once daily, 24 and 72 hours post-infection, n=5
Method: Platelet counts of DENV2 infected mice. Mice deficient in interferon signalling (IFNαβγ-KO) were infected via intraperitoneal route (IP) with 10^6 plaque forming units (pfu) and were given either vehicle (1% DMSO) or ketanserin 8 mg/kg […]. Blood was taken via cheek bleed 24 and 72 hours post-infection and platelet counts were measured using an automated hematology analyzer. DENV2 infection induced thrombocytopenia, but ketanserin treatment was able to prevent thrombocytopenia (n=5). Mean values are presented and error bars represent the SEM. P values were determined by Student's unpaired t test; ****P<0.0001.
These mice are commonly used in the study of DENV as their deficiency in interferon signaling results in sustained DENV replication [St John, A. L., et al., eLife 2, e00481 (2013)]. IFNαβγ-KO mice were infected via the intraperitoneal route (IP) with 10^6 plaque forming units (pfu) of DENV2 and were given either vehicle (1% DMSO) or ketanserin (8 mg/kg) IP once daily thereafter. Blood was taken via cheek bleed 24 and 72 hours post-infection and platelet counts were measured using an automated hematology analyzer.

DENV2-infected mice = assay: Platelet aggregation in peripheral blood smears of DENV2-infected WT mice; conditions: 10^6 pfu DENV2 IP, ketanserin 8 mg/kg IP 1 hour after infection, blood 24 hours post-infection, vs vehicle 1% DMSO
Method: Images depict peripheral blood smears from DENV2-infected mice. Mice were infected via intraperitoneal route (IP) with 10^6 pfu. (A) Mock infected mice. (B) DENV-infected mice treated with vehicle control IP. (C) DENV-infected mice given ketanserin 8 mg/kg IP. Blood was taken via cheek bleed 24 hours post-infection, smeared onto glass slides, stained with eosin and methylene blue and viewed under light microscopy using a 100× magnification lens. Dengue induces platelet aggregation, while administration of ketanserin prevents this. A few individual platelets are indicated by arrows; platelet aggregates are circled by dashed lines. Scale bar=10 μm.
To test whether ketanserin could block platelet aggregation and/or prevent thrombocytopenia, a mouse model of dengue infection was used. WT mice were infected via intraperitoneal route (IP) with 10^6 pfu of DENV2 and, after 1 hour, treated with vehicle (1% DMSO) or ketanserin (8 mg/kg) IP. Blood was taken via cheek bleed 24 hours post-infection, smeared onto glass slides, stained with eosin and methylene blue and viewed under light microscopy using a 100× magnification lens. […] Selected red blood cells (RBC), platelets (arrows) and platelet aggregates (dashed lines) are labeled.

SMILES: O=C(c1ccc(F)cc1)C1CCN(CCn2c(=O)[nH]c3ccccc3c2=O)CC1 [ketanserin, 3-[2-[4-(4-fluorobenzoyl)piperidin-1-yl]ethyl]-1H-quinazoline-2,4-dione]
- viral load in serum (DENV2): no difference in viral load
- viral load in spleen (DENV2): no difference in viral load
- platelet counts (DENV2-induced thrombocytopenia) [1]: able to maintain the initial normal platelet count
- DENV-induced platelet aggregation in peripheral blood smears (DENV2-infected mice): prevented
